Data set [1] concerns COLO 205. Description: Induction of apoptosis in human COLO 205 cells assessed as viable cells at 0.33 uM incubated for 72 hrs by Annexin FITC-A staining based flow cytometry (reference value: 78.7 %). Type of data set: functional. The settings on record: read-out: Activity. On the technique in general: Flow cytometry measures light scatter and fluorescence of single cells or particles in a stream.

The test system of data set [2] is COLO 205. Description: Induction of apoptosis in human COLO 205 cells assessed as viable cells at 1 uM incubated for 72 hrs by Annexin FITC-A staining based flow cytometry (reference value: 78.7 %). Type of data set: functional. The settings on record: read-out: Activity.
Data set [3] deals with COLO 205. Description: Induction of apoptosis in human COLO 205 cells assessed as necrotic cells at 0.037 uM incubated for 72 hrs by Annexin FITC-A staining based flow cytometry (reference value: 9.65 %). Type of data set: functional.
Data set [4] concerns COLO 205. Description: Induction of apoptosis in human COLO 205 cells assessed as early apoptotic cells at 0.037 uM incubated for 72 hrs by Annexin FITC-A staining based flow cytometry (reference value: 2.54 %). Type of data set: functional.
Data set [5] has as its system COLO 205. Description: Induction of apoptosis in human COLO 205 cells assessed as early apoptotic cells at […] incubated for 72 hrs by Annexin FITC-A staining based flow cytometry (reference value: 2.54 %). Type of data set: functional. The following applies: dose 0.11 µM.
The test system of data set [6] is COLO 205. Description: Induction of apoptosis in human COLO 205 cells assessed as viable cells at […] incubated for 72 hrs by Annexin FITC-A staining based flow cytometry (reference value: 78.7 %). Type of data set: functional. The following applies: dose 0.11 µM, read-out: Activity.
Data set [7] deals with COLO 205. Description: Induction of apoptosis in human COLO 205 cells assessed as late apoptotic cells at 0.33 uM incubated for 72 hrs by Annexin FITC-A staining based flow cytometry (reference value: 9.15 %). Type of data set: functional.
Data set [8] is described as follows: Metabolic stability in human liver microsomes assessed as half life at 1 uM measured upto 45 mins in presence of NADPH by LC-MS/MS analysis. Type of data set: ADME, Microsome. On the technique in general: Liver microsomes are vesicles of endoplasmic reticulum, rich in cytochrome P450 enzymes.
Data set [9] relates to COLO 205. Description: Induction of apoptosis in human COLO 205 cells assessed as early apoptotic cells at 1 uM incubated for 72 hrs by Annexin FITC-A staining based flow cytometry (reference value: 2.54 %). Type of data set: functional.
Data set [10] relates to COLO 205. Description: Induction of cell cycle arrest in human COLO 205 cells assessed as accumulation at G1 phase at 0.037 uM incubated for 24 hrs by flow cytometry (reference value: 47.9 %). Type of data set: functional.
In data set [11] the test system is COLO 205. Description: Induction of apoptosis in human COLO 205 cells assessed as necrotic cells at 1 uM incubated for 72 hrs by Annexin FITC-A staining based flow cytometry (reference value: 9.65 %). Type of data set: functional.
The test system of data set [12] is COLO 205. Description: Induction of apoptosis in human COLO 205 cells assessed as late apoptotic cells at 1 uM incubated for 72 hrs by Annexin FITC-A staining based flow cytometry (reference value: 9.15 %). Type of data set: functional.
Data set [13] concerns COLO 205. Description: Induction of cell cycle arrest in human COLO 205 cells assessed as accumulation at S phase at 0.037 uM incubated for 24 hrs by flow cytometry (reference value: 40.8 %). Type of data set: functional.
In data set [14] the test system is COLO 205. Description: Induction of apoptosis in human COLO 205 cells assessed as viable cells at 0.037 uM incubated for 72 hrs by Annexin FITC-A staining based flow cytometry (reference value: 78.7 %). Type of data set: functional. The settings on record: read-out: Activity.
In data set [15] the test system is COLO 205. Description: Induction of apoptosis in human COLO 205 cells assessed as necrotic cells at […] incubated for 72 hrs by Annexin FITC-A staining based flow cytometry (reference value: 9.65 %). Type of data set: functional. The settings on record: dose 0.11 µM.
The subject of data set [16] is COLO 205. Description: cells. The settings on record: Homo sapiens.
For data set [17], the system named is COLO 205. Description: Induction of cell cycle arrest in human COLO 205 cells assessed as accumulation at G2 phase at 0.037 uM incubated for 24 hrs by flow cytometry (reference value: 6.8 %). Type of data set: functional.
Data set [18] is described as follows: Cytotoxicity against human FHC cells assessed as cell growth inhibition by MTT assay. Type of data set: toxicity, cell-based. For orientation: Formazan colour is commonly taken as a measure of viable cells.
The subject of data set [19] is COLO 205. Description: Induction of apoptosis in human COLO 205 cells assessed as early apoptotic cells at 0.33 uM incubated for 72 hrs by Annexin FITC-A staining based flow cytometry (reference value: 2.54 %). Type of data set: functional.
The subject of data set [20] is COLO 205. Description: Induction of apoptosis in human COLO 205 cells assessed as necrotic cells at 0.33 uM incubated for 72 hrs by Annexin FITC-A staining based flow cytometry (reference value: 9.65 %). Type of data set: functional.
Data set [21] concerns COLO 205. Description: Induction of apoptosis in human COLO 205 cells assessed as late apoptotic cells at 0.037 uM incubated for 72 hrs by Annexin FITC-A staining based flow cytometry (reference value: 9.15 %). Type of data set: functional.
In data set [22] the test system is COLO 205. Description: Induction of apoptosis in human COLO 205 cells assessed as late apoptotic cells at […] incubated for 72 hrs by Annexin FITC-A staining based flow cytometry (reference value: 9.15 %). Type of data set: functional. The settings on record: dose 0.11 µM.
Data set [23] has as its system COLO 205. Description: Induction of cell death in human COLO 205 cells at 0.11 to 1 uM incubated for 24 hrs by flow cytometry. The settings on record: dose 0.11-1 µM. Type of data set: functional, cell-based.

The structures appear in SMILES notation. Activity calls are given as the source filed them. The rule behind the calls is not given here.

Take `CCN1CCN(CCCOc2cc3nccc(Oc4c(F)cc(NC(=O)NN5C(=O)CS[C@H]5c5ccc(F)cc5F)cc4F)c3cc2OC)CC1`: the viability at 0.33 µM in the data set on COLO 205 [1] is 15.4%. In the data set with COLO 205 [2], the viability at 1 µM came out at 14%. Also, the Activity in the data set with COLO 205 [3] is 5.23%; in the data set on COLO 205 [4], 6.59%; in the data set on COLO 205 [5] it was 6.29%; in the data set on COLO 205 [7], 54.4%; with COLO 205 [9], 7.41%; in the data set with COLO 205 [10], 51.4%. Moreover, the Activity in the data set with COLO 205 [11] turned out to be 13.9%; in the data set with COLO 205 [12], 64.7%; with COLO 205 [13], 38.3%; in the data set with COLO 205 [15] it was 22.7%; in the data set with COLO 205 [17], 6.2%; in the data set on COLO 205 [19] it was 5.19%. The results for the Activity with COLO 205 [20], in the data set on COLO 205 [21] and with COLO 205 [22] were 25%, 24.8% and 47.9%, respectively. Besides, the viability at […] in the data set with COLO 205 [6] turned out to be 23.1%. Moreover, the half-life – broadly, how long it takes for the measured level to halve – at 1 µM in data set [8] turned out to be 170 min. Further, in the data set with COLO 205 [14], the viability at 0.037 µM was determined as 63.4%. Moreover, the IC50 (in general, the point on the concentration scale where inhibition reaches its midpoint) is 42 nM with COLO 205 [16] and over 10 µM in data set [18]. Besides, the result in the data set on COLO 205 [23] was Active.
